Measured values as given in ChEMBL document CHEMBL1122010 (J Med Chem, 1982).

Tests used:
Dihydrofolate reductase = target: T1, Dihydrofolate reductase (Mus musculus, UniProt P00375); experiment: Inhibition of Dihydrofolate reductase in mouse L1210 cells; format: cell-based
T1 sequence (P00375 whole entry): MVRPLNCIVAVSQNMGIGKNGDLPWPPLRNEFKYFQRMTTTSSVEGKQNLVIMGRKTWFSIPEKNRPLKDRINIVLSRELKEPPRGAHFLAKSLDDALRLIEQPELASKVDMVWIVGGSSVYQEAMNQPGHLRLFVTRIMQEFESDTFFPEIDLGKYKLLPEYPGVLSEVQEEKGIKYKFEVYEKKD

HEp-2 = experiment: Effective dose against H.Ep.-2 cells; format: functional; conditions: Homo sapiens, read-out: ED50 (the source's name)
L1210 [1] = experiment: k value was measured as efflux in L1210 cell membrane transport.; format: functional, Mus musculus
L1210 [2] = experiment: Percent increase in life span was measured against L1210 murine leukemia cells at the dose of 5 mg/kg; format: functional; conditions: Mus musculus
[3] = The compound was compared with MTX with respect to cytotoxicity toward H.Ep.-2 cells.; format: functional
L1210 [4] = experiment: Km value was measured as influx in L1210 cell membrane transport.; format: functional, cell-based; conditions: Mus musculus
L1210 [5] = experiment: Percent increase in life span was measured against L1210 murine leukemia cells at the dose of 100 mg/kg; format: functional; conditions: Mus musculus
L1210 [6] = experiment: Percent increase in life span was measured against L1210 murine leukemia cells at the dose of 25 mg/kg; format: functional; conditions: Mus musculus
L1210 [7] = experiment: Ki value was measured as influx in L1210 cell membrane transport.; format: functional, cell-based, Mus musculus
L1210 [8] = experiment: Percent increase in life span was measured against L1210 murine leukemia cells at the dose of 50 mg/kg; format: functional; conditions: Mus musculus
L1210 [9] = experiment: Percent increase in life span was measured against L1210 murine leukemia cells at the dose of 180 mg/kg; format: functional; conditions: Mus musculus
L1210 [10] = experiment: Percent increase in life span was measured against L1210 murine leukemia cells at the dose of 1.3 mg/kg; format: functional; conditions: Mus musculus
L1210 [11] = experiment: Percent increase in life span was measured against L1210 murine leukemia cells at the dose of 200 mg/kg; format: functional; conditions: Mus musculus
L1210 [12] = experiment: Percent increase in life span was measured against L1210 murine leukemia cells at the dose of 2.5 mg/kg; format: functional; conditions: Mus musculus

For CN(Cc1cnc2nc(N)nc(N)c2n1)c1ccc(C(=O)NC(CCC(=O)NCC(=O)O)C(=O)O)cc1 (stereo not drawn), the Ki (Dihydrofolate reductase) was 0.0029 nM, the EC50 (HEp-2) was 5.9 nM and the k (L1210 [1]) was 2.1 min⁻¹. The ILS at 5 mg/kg (L1210 [2]) was 74%, the MTX ratio [3] was 2.5 and the Km (L1210 [4]) was 3.9 µM.
For CNC(=O)CCC(NC(=O)c1ccc(N(C)Cc2cnc3nc(N)nc(N)c3n2)cc1)C(=O)O (stereo not drawn), the Ki (Dihydrofolate reductase) was 0.0027 nM, the EC50 (HEp-2) was 27 nM and the k (L1210 [1]) was 0.21 min⁻¹. For the same molecule, the ILS at 100 mg/kg (L1210 [5]) was 58%, the MTX ratio [3] was 11 and the Km (L1210 [4]) was 27.6 µM.
CN(Cc1cnc2nc(N)nc(N)c2n1)c1ccc(C(=O)NC(CCC(=O)N[C@@H](CC(=O)O)C(=O)O)C(=O)O)cc1 (stereo partly drawn) showed a Ki (Dihydrofolate reductase) of 0.0028 nM, an EC50 (HEp-2) of 330 nM and an ILS at 5 mg/kg (L1210 [2]) of 65%. It also gave an MTX ratio [3] of 140 and a Km (L1210 [4]) greater than 300 µM.
Molecule CN(Cc1cnc2nc(N)nc(N)c2n1)c1ccc(C(=O)NC(CCC(=O)O)C(N)=O)cc1 (stereo not drawn) has a Ki (Dihydrofolate reductase) of 460 nM, an EC50 (HEp-2) of 610 nM and an ILS at 25 mg/kg (L1210 [6]) of 34%. The MTX ratio [3] was 250.
For CN(Cc1cnc2nc(N)nc(N)c2n1)c1ccc(C(=O)NC(CCC(=O)O)C(=O)NCC(=O)O)cc1 (stereo not drawn), the Ki (Dihydrofolate reductase) was 208 nM, the EC50 (HEp-2) was 590 nM and the Ki (L1210 [7]) was 66600 nM. The ILS at 50 mg/kg (L1210 [8]) was 41% and the MTX ratio [3] was 370.
In the case of CN(Cc1cnc2nc(N)nc(N)c2n1)c1ccc(C(=O)NC(CCC(N)=O)C(=O)O)cc1 (stereo not drawn), the Ki (Dihydrofolate reductase) is reported as 0.0027 nM, the EC50 (HEp-2) is reported as 28 nM and the Ki (L1210 [7]) is reported as 8400 nM. It also gave a k (L1210 [1]) of 0.15 min⁻¹, an ILS at 180 mg/kg (L1210 [9]) of 58% and an MTX ratio [3] of 12. For the same molecule, the Km (L1210 [4]) was 9.4 µM.
Work on CN(C)C(=O)CCC(NC(=O)c1ccc(N(C)Cc2cnc3nc(N)nc(N)c3n2)cc1)C(=O)O (stereo not drawn) yielded a Ki (Dihydrofolate reductase) of 0.0039 nM, an EC50 (HEp-2) of 59 nM and a k (L1210 [1]) of 0.26 min⁻¹. It also gave an ILS at 50 mg/kg (L1210 [8]) of 44%, an MTX ratio [3] of 25 and a Km (L1210 [4]) of 48.4 µM.
CN(Cc1cnc2nc(N)nc(N)c2n1)c1ccc(C(=O)NC(CCC(=O)O)C(=O)N[C@@H](CCC(=O)O)C(=O)O)cc1 (stereo partly drawn) showed a Ki (Dihydrofolate reductase) of 170 nM, an EC50 (HEp-2) of 180 nM and a Ki (L1210 [7]) of 61000 nM. It also gave an ILS at 25 mg/kg (L1210 [6]) of 67% and an MTX ratio [3] of 75.
For CN(Cc1cnc2nc(N)nc(N)c2n1)c1ccc(C(=O)N[C@@H](CCC(=O)O)C(=O)O)cc1 [METHOTREXATE], the Ki (L1210 [7]) was 3500 nM, the k (L1210 [1]) was 0.23 min⁻¹ and the ILS at 1.3 mg/kg (L1210 [10]) was 48%. The Km (L1210 [4]) was 3.3 µM.
Molecule CCCCCNC(=O)CCC(NC(=O)c1ccc(N(C)Cc2cnc3nc(N)nc(N)c3n2)cc1)C(=O)O (stereo not drawn) has a Ki (Dihydrofolate reductase) of 0.0035 nM, an EC50 (HEp-2) of 55 nM and a Ki (L1210 [7]) of 16800 nM. It also gave a k (L1210 [1]) of 0.26 min⁻¹, an ILS at 200 mg/kg (L1210 [11]) of 55% and an MTX ratio [3] of 23. It also gave a Km (L1210 [4]) of 16.9 µM.
Molecule CN(Cc1cnc2nc(N)nc(N)c2n1)c1ccc(C(=O)NC(CCC(=O)NCc2ccccc2)C(=O)O)cc1 (stereo not drawn) has a Ki (Dihydrofolate reductase) of 0.0036 nM, an EC50 (HEp-2) of 210 nM and a Ki (L1210 [7]) of 3800 nM. For the same molecule, the k (L1210 [1]) was 0.19 min⁻¹, the ILS at 100 mg/kg (L1210 [5]) was 33% and the MTX ratio [3] was 88. It also gave a Km (L1210 [4]) of 3.6 µM.
With CN(Cc1cnc2nc(N)nc(N)c2n1)c1ccc(C(=O)NC(CCC(=O)O)C(=O)N[C@@H](CC(=O)O)C(=O)O)cc1 (stereo partly drawn) the Ki (Dihydrofolate reductase) was 208 nM, the EC50 (HEp-2) was 520 nM and the Ki (L1210 [7]) was 146000 nM. It also gave an ILS at 25 mg/kg (L1210 [6]) of 47% and an MTX ratio [3] of 217.
CN(Cc1cnc2nc(N)nc(N)c2n1)c1ccc(C(=O)NC(CCC(=O)N[C@@H](CCC(=O)O)C(=O)O)C(=O)O)cc1 (stereo partly drawn) gave a Ki (Dihydrofolate reductase) of 0.0037 nM, an EC50 (HEp-2) of 5.2 nM and a k (L1210 [1]) of 0.22 min⁻¹. It also gave an ILS at 2.5 mg/kg (L1210 [12]) of 65%, an MTX ratio [3] of 2.2 and a Km (L1210 [4]) of 49.3 µM.
